# Test results taken from ChEMBL document CHEMBL5042519, “Design and synthesis of marine sesterterpene analogues as novel estrogen receptor α degraders for breast cancer treatment” (Eur J Med Chem, 2022).
# Active and inactive are the calls of the source. The rule behind the calls is not given here.
# Experiments:
# [1] = test system: MCF7; assay: Antiproliferative activity against human MCF7 cells assessed as reduction in cell viability after 48 hrs by MTT assay; assay type: functional, cell-based; conditions: MCF7, 48 h
# [2] = test system: MCF7; assay: Antiproliferative activity against human MCF7/ADR cells assessed as reduction in cell viability after 48 hrs by MTT assay; assay type: functional, cell-based; conditions: MCF7, 48 h
# [3] = biological target: T1, Estrogen receptor (Homo sapiens) (UniProt P03372); assay: Induction of ERalpha degradation in human MCF7 cells assessed as decrease in ERalpha protein expression at 0.5 to 3 uM for 24 hrs by Western blot analysis; assay type: cell-based; conditions: dose 0.5-3 µM
# T1 sequence (whole entry): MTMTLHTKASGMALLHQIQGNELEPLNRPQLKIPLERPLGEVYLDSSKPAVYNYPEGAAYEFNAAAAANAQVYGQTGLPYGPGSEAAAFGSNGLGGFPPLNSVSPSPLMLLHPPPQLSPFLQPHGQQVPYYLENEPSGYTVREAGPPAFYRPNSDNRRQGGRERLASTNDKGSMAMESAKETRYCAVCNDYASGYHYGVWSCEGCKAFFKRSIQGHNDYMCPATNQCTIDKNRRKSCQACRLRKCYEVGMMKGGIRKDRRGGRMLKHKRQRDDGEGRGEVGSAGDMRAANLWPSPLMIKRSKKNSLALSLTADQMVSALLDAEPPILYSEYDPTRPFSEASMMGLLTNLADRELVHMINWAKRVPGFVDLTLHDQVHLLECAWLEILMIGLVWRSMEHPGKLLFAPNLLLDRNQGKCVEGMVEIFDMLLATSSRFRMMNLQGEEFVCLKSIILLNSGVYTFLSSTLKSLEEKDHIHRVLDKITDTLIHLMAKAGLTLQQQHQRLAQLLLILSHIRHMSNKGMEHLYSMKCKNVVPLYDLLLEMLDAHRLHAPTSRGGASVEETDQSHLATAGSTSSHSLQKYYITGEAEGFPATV
# [4] = biological target: T1, Estrogen receptor (Homo sapiens); assay: Induction of ERalpha degradation in human MCF7 cells assessed as decrease in ERalpha protein expression at 3 uM measured upto 24 hrs by Western blot analysis; assay type: cell-based; conditions: time hrs <=24, TDE = time-dependent effect
# [5] = test system: MCF7; assay: Inhibition of colony formation in human MCF7 cells at 0.5 to 2 uM measured after 9 days by crystal violet staining based assay; assay type: functional, cell-based; conditions: dose 0.5-2 µM, time 9.0 day
# [6] = test system: MCF7; assay: Inhibition of colony formation in human MCF7 cells at 0.5 uM measured after 9 days by crystal violet staining based assay relative to control; assay type: functional, cell-based; conditions: time 9.0 day
# [7] = test system: MCF7; assay: Effect on cell morphology in human MCF7 cells assessed as appearance of round cells at 0.5 to 2 uM measured after 24 hrs by Hoechst 33342 staining based fluorescence microscopy; assay type: functional; conditions: dose 0.5-2 µM
# [8] = test system: MCF7; assay: Induction of apoptosis in human MCF7 cells assessed as early apoptotic cells at 0.5 uM incubated for 24 hrs by annexin-V and PI staining based flow cytometry analysis relative to control; assay type: functional
# [9] = test system: MCF7; assay: Induction of apoptosis in human MCF7 cells assessed as early apoptotic cells at 2 uM incubated for 24 hrs by annexin-V and PI staining based flow cytometry analysis relative to control; assay type: functional
# [10] = test system: MCF7; assay: Induction of ROS generation in human MCF7 cells assessed as increase in intracellular ROS level at 2 uM measured after 24 hrs by DCFH-DA staining based flow cytometry method (reference value: 19.02%); assay type: functional
# [11] = test system: MCF7; assay: Induction of ROS generation in human MCF7 cells assessed as increase in intracellular ROS level measured after 24 hrs preincubated with NAC by DCFH-DA staining based flow cytometry method; assay type: functional, cell-based
# [12] = test system: MCF7; assay: Induction of mitochondrial membrane potential loss in human MCF7 cells measured after 24 hrs by JC-1 staining based flow cytometry; assay type: functional, cell-based
# [13] = test system: MCF7; assay: Induction of mitochondrial membrane potential loss in human MCF7 cells at 2 uM measured after 24 hrs by JC-1 staining based flow cytometry; assay type: functional, cell-based
# [14] = test system: MCF7; assay: Induction of apoptosis in human MCF7 cells assessed as decrease in Bcl2 protein level at 0.5 to 3 uM and measured after 24 hrs Western blot analysis relative to control; assay type: functional, cell-based; conditions: dose 0.5-3 µM
# [15] = test system: MCF7; assay: Induction of apoptosis in human MCF7 cells assessed as increase in cleaved caspase 3 level at 0.5 to 3 uM and measured after 24 hrs Western blot analysis relative to control; assay type: functional, cell-based; conditions: dose 0.5-3 µM
# [16] = test system: MCF7; assay: Induction of apoptosis in human MCF7 cells assessed as increase in cleaved caspase 9 level at 0.5 to 3 uM and measured after 24 hrs Western blot analysis relative to control; assay type: functional, cell-based; conditions: dose 0.5-3 µM
# [17] = test system: MCF7; assay: Cell cycle arrest in human MCF7 cells assessed as accumulation at G1 phase at 2 uM measured after 24 hrs by propidium iodide staining based flow cytometry (reference value: 73.45 %); assay type: functional
# [18] = test system: MCF7; assay: Cell cycle arrest in human MCF7 cells assessed as reduction in cyclin D1 expression at 0.5 to 3 uM and measured after 24 hrs by Western blot analysis; assay type: functional, cell-based; conditions: dose 0.5-3 µM
# [19] = test system: MCF7; assay: Cell cycle arrest in human MCF7 cells assessed as reduction in CDK4 expression at 0.5 to 3 uM and measured after 24 hrs by Western blot analysis; assay type: functional, cell-based; conditions: dose 0.5-3 µM
# [20] = Metabolic stability in rat plasma assessed as parent compound remaining incubated for 60 mins in presence of NADPH by UPLC-MS analysis; assay type: ADME, cell-free; conditions: read-out: Stability
# [21] = Metabolic stability in rat liver microsomes assessed as assessed as intrinsic clearance incubated for 60 mins in presence of NADPH by UPLC-MS analysis; assay type: ADME, Microsome; conditions: read-out: CLH
# [22] = biological target: T1, Estrogen receptor (Homo sapiens); assay: Induction of ERalpha degradation in human MCF7 cells assessed as ERalpha level at 3 uM measured after 24 hrs in presence of chloroquine by Western blot analysis; assay type: cell-based
# [23] = test system: MCF7; assay: Effect on cell morphology in human MCF7 cells assessed as chromatin shrinkage at 0.5 to 2 uM measured after 24 hrs by Hoechst 33342 staining based fluorescence microscopy; assay type: functional; conditions: dose 0.5-2 µM
# [24] = test system: MCF7; assay: Effect on cell morphology in human MCF7 cells assessed as appearance of apoptotic bodies at 0.5 to 2 uM measured after 24 hrs by Hoechst 33342 staining based fluorescence microscopy; assay type: functional; conditions: dose 0.5-2 µM
smiles,measurement,setting,value
CC1=CC(=O)[C@H]2/C(C=O)=C\C[C@H]3[C@@H]([C@@H](C)/C=C\C=C/C(=O)OCCOCCOCCOC(=O)CC45CC6CC(CC(C6)C4)C5)CC[C@]3(C)C[C@H]12,IC50,[1],410 nM
same,IC50,[2],480 nM
same,Activity,[3],Dose-Dependent Effect
same,Activity,[4],Tde
same,inhibition,[5],Active
same,inhibition,[6],Active
same,Activity,[7],Active
same,Activity,[8],6.9%
same,Activity,[9],32.3%
same,Activity,[10],58.14%
same,Activity,[11],inactive
same,Activity,[12],Active
same,Activity,[13],Active
same,Activity,[14],Active
same,Activity,[15],Dose-Dependent Effect
same,Activity,[16],Dose-Dependent Effect
same,Activity,[17],87.85%
same,Activity,[18],Dose-Dependent Effect
same,Activity,[19],Dose-Dependent Effect
same,remaining at 1 h,[20],81%
same,microsomal CLint,[21],17.8 µL/min/mg
same,Activity,[22],Active
same,Activity,[23],Active
same,Activity,[24],Active
